Data published in patent US9056886B2, “Guanosine-rich modified oligonucleotides and antiproliferative activity thereof” (APTABIO THERAPEUTICS INC., priority 2009, dated 2015).
[5FU] = 5-fluoro-uracil base (5-fluoro-2'-deoxyuridine); [GEM] = 2',2'-difluoro-2'-deoxycytidine (gemcitabine); d = 2'-deoxy (DNA)

Columns and labels:
[1] = tested on: PC-3 cell line (prostate cancer cell); test: Cell apoptosis (XTT method) in PC-3 cells; type: cell-based; settings: for IC50: PC3 (Prostate Cancer Cells), cultured six days, XTT
Experimental: (§1) Each oligonucleotide was diluted in 10 mM Tris-HCl (pH 7.4) to a final concentration of 100 μM. The diluted solution was placed at 94° C. for 5 minutes and then quickly placed them on ice and left therein for 5 minutes. The resultant was added with 2M KCl to a final concentration of 50 mM, left at 60° C. for 3 hours and then slowly cooled down to room temperature.
(§2) One day before the experiment, 190 μL of culture, wherein PC-3 cell line(prostate cancer cell) was suspended at a concentration of 10^3-10^4/mL, was inoculated respectively into each well of a 96 well plate. The next day, 10 μL of the oligonucleotide solution prepared in Example 1 was added and cultured for six days. Six days after the inoculation, cell apoptosis rate measured by means of XTT method [JBC 1999, 26369].

mice = test: Toxicity test in mice; type: in vivo; settings: 1 g/kg administered, 10 mice/group, observed for the next 7 days
Experimental: Toxicity test was performed on the active ingredient of the present invention as follows.
Each of APT-2001, APT-2002 and APT-2003 was dissolved in dimethylsulfoxide (DMSO), diluted with water and then administered to mice (10 mice/group) in the amount of 1 g/kg.

[2] = tested on: HCT116 (Rectal Cancer Cells); test: Cell apoptosis (XTT method) in HCT116 cells; type: cell-based
Experimental: [Worded in the source for another cell line; this cell line is reported under the same test.] as §1, §2
(§3) As a result, it was confirmed that the cell apoptosis rate of APT-2001, APT-2002 and APT-2003 (the novel modified oligonucleotides of the present invention), was 3-10 times higher than those of APT-4001 (positive control) and APT-4002 (negative control) as measured in terms of IC50 or IC90 (FIG. 2). […] In addition, the cell apoptotic activity of the oligonucleotides, prepared according to the present invention over the K562 CML (chronic myeloid leukemia), MV-4-11 AML (acute leukemia) cells, were also verified.

[3] = tested on: MCF7 (Breast Cancer Cells); test: Cell apoptosis (XTT method) in MCF7 cells; type: cell-based
Experimental: [Worded in the source for another cell line; this cell line is reported under the same test.] as §1, §2, §3

[4] = tested on: A549 (Non-small Cell Carcinoma Cells); test: Cell apoptosis (XTT method) in A549 cells; type: cell-based
[5] = tested on: A498 (Kidney Cancer Cells); test: Cell apoptosis (XTT method) in A498 cells; type: cell-based
[6] = tested on: MCF7-DX (Breast Cancer Cells), a drug-resistance cell line; test: Cell apoptosis (XTT method) in MCF7-DX cells; type: cell-based
Experimental: [Worded in the source for another cell line; this cell line is reported under the same test.] as §1, §2, §3

| Substance | IC50 [1] [nM] | cell apoptotic activity compared to APT-4001 (positive control) ([1]; even at a smaller amount than APT-4001, FIG. 3) | survival of mice (mice) | IC50 [2] [nM] | IC50 [3] [nM] | IC50 [4] [nM] | IC50 [5] [nM] | IC50 [6] [nM] |
| --- | --- | --- | --- | --- | --- | --- | --- | --- |
| APT-2002: NNNGGTGGTGGTGGTTGTGGTGGTGGTGG (SEQ. ID. NO. 2); N=5-F-deoxyuridine, G=2-deoxy-guanosine, H=thymidine (DNA UUUGGTGGTGGTGGTTGTGGTGGTGGTGG; DNA, [5FU] at 1, 2, 3, backbone not given here) | 2600 | superior cell apoptotic activity | all mice survived | 2100 | 8900 | 5200 | < 100 | 600 |
| APT-2063: GGTGGTGGTNGNGGTGGTGG (SEQ. ID. NO. 40); N=2′,2′-difluoro deoxycytidine, G=2-deoxy-guanosine, H=thymidine (aptamer; listed as DNA, chemistry not fully specified) | 22 |  |  |  |  |  |  | 8 |
| APT-2064: GGNGGTGGTTGTGGTGGNGG (SEQ. ID. NO. 41); N=2′,2′-difluoro deoxycytidine, G=2-deoxy-guanosine, H=thymidine (DNA GGCGGTGGTTGTGGTGGCGG; sugars from the 5' end d2 [GEM]1 d14 [GEM]1 d2, backbone not given here; G-quadruplex forming oligonucleotide) | 16 |  |  |  |  |  |  | 8 |
| APT-2066: GGTGGTGGTGGTNNTGGTGGTGGTGG (SEQ. ID. NO. 29); N=2′,2′-difluoro deoxycytidine, G=2-deoxy-guanosine, H=thymidine (DNA GGTGGTGGTGGTCCTGGTGGTGGTGG; sugars from the 5' end d12 [GEM]2 d12, backbone not given here; G-quadruplex forming oligonucleotide) | 34 |  |  |  |  |  |  | 10 |
| APT-2070: GGNGGTGGTGGTTGTGGTGGTGGTGG (SEQ. ID. NO. 45); N=2′,2′-difluoro deoxycytidine, G=2-deoxy-guanosine, H=thymidine (2',2'-difluoro deoxycytidine modified nucleosides, chemistry not fully specified) | 24 |  |  |  |  |  |  | 13 |
| APT-4002: Negative control, TTTCCTCCTCCTCCTTCTCCTCCTCCTCC (SEQ. ID. NO. 49); thymidine, 2′-deoxycytidine (DNA, backbone not given here) [reference compound] | > 50000 |  |  | > 50000 |  | > 50000 | > 50000 | > 50000 |
